“Also recorded” adds a separate entry of the source.
System: isolated embryonic rat cardiomyocytes
Assay: Spontaneous action potentials in rat cardiomyocytes, whole-cell patch clamp
Assay type: cell-based
Settings: for effect on arrhythmic firing induced by Chromanol 293B: 30 μM N-AT in the presence of 5 μM Chromanol 293B
Method: On gestation day (GD) 16 of pregnancy time-mated Sprague Dawley rats (Taconic, Denmark) were sacrificed in a CO2 chamber followed by cervical dislocation. Cell preparation of cardiomyocytes and culturing on glass coverslips were made (Danielsson, C. et al. Cardiovasc Res 97, 23-32 (2013)). Spontaneous action potentials were measured using the patch-clamp technique, whole cell configuration, 1-3 days after culturing. An Axopatch 200B patch-clamp amplifier, Digidata 1140A converter (Molecular Devices) and pClamp software (Molecular Devices) were used to acquire data. The extracellular solution contained (in mM): 140 NaCl, 5.4 KCl, 1 MgCl2, 1.8 CaCl2, 10 Glucose and 10 HEPES (pH 7.4, adjusted with NaOH). The intracellular solution contained (in mM): 130 K-gluconate, 9 KCl, 8 NaCl, 10 EGTA, 1 MgCl2, 10 HEPES and 3 MgATP (pH 7.3, adjusted with KOH). The solutions were perfused through the recording chamber (flow: 0.5 mL/min). All chemicals were purchased from Sigma-Aldrich. […] All experiments were carried out at 35° C. To analyze action potential characteristics a stable 60-seconds recording was selected before and after application of the test solution. The average data were then calculated for the complete trace in Clampfit 10 (Molecular Devices). Liquid junction potential was not adjusted for.
Average values are expressed as mean±SEM. Mean values for shifts in voltage dependence were analyzed using a two-tailed one samplet-test where mean values were compared with a hypothetical value of 0 or where mean values were compared to each other. Effects of N-AT on action potential peak amplitude and RMP in cardiomyocytes were analyzed using paired two-tailed t-test. Effects of N-AT on the relative change of APD and RR-interval were analyzed using two-tailed one samplet-test where mean values were compared with a hypothetical value of 1. P<0.05 is considered as statistically significant.
The effect of N-arachidonoyl taurine on isolated embryonic rat cardiomyocytes was tested. A sub-saturating concentration of the IKs channel blocker Chromanol 293B, which is known to induce arrhythmia (Aiba, T. et al. J Am Coll Cardiol 45, 300-307 (2005)), was applied to the cardiomyocytes. In general, two types of effects are seen upon Chromanol 293B application: (1) arrhythmic firing (FIG. 8A-B) or (2) a slowing of the frequency of spontaneous action potential firing (FIG. 8D-E). The different effects are most likely due to different subtypes of cardiomyocytes. […] The anti-arrhythmic effect of N-arachidonoyl taurine was associated with a shortening of the cardiomyocyte action potential duration and an increase in the frequency of action potential firing (FIG. 8G-I, Table 2). 30 μM N-arachidonoyl taurine had no effect on the resting membrane potential (Table 2) but decreased the action potential peak amplitude by −9±1 mV (Table 2).
Cardiomyocytes were isolated from rat heart and the spontaneous electrical activity in the cardiomyocytes was measured using the current clamp mode of patch clamp. […] Further, arrhythmia was induced in these cardiomyocytes by the IKs specific drug chromanol. In the presence of 5 μM chromanol, there are clearly additional action potentials caused by early after depolarizations (EADs) (FIG. 9D). EADs are known to accompany Long QT and could lead to ventricular fibrillation and cardiac sudden death in the intact heart. […] N-AT and chromanol are known to bind to different parts of the IKs channels (chromanol is a pore blocker, whereas N-AT is binding to the voltage sensor), so this effect of N-AT is not just a competition with chromanol to the same binding site. Rather, N-AT increases the currents by attracting the voltage sensor, whereas chromanol is known to block the currents by binding to the pore.

[1] = 30 μM N-AT vs control, listed as N-arachidonoyl taurine

In the case of `CCCCC/C=C\C/C=C\C/C=C\C/C=C\CCCC(=O)NCCS(=O)(=O)O` [N-AT, N-arachidonoyl taurine], the “APD30, Mean ± SEM” value (30 μM N-AT) is reported as 211 ± 37 ms, the “APD50, Mean ± SEM” value (30 μM N-AT) is reported as 279 ± 47 ms and the “APD70, Mean ± SEM” value (30 μM N-AT) is reported as 336 ± 50 ms. The “Amplpeak (peak action potential amplitude), Mean ± SEM” value (30 μM N-AT) was 32 ± 2 mV, the “RMP (resting membrane potential), Mean ± SEM” value (30 μM N-AT) was −56 ± 2 mV and the “RR-interval, Mean ± SEM” value (30 μM N-AT) was 2075 ± 197 ms. For the same molecule, the “length of the ventricular action potential / action potential duration” value (30 μM N-AT) was “reduced the length of the ventricular action potential; also recorded: shortened the cardiomyocyte action potential duration”, the “effect on arrhythmic firing induced by Chromanol 293B” value was “restores rhythmic firing; also recorded: reversed the arrhythmic behavior” and the “effect on arrhythmic firing induced by Chromanol 293B” value (listed as N-arachidonoyl taurine) was “reversed the effect”. The “early after depolarizations (EADs)” value (30 μM N-AT in the presence of 5 μM chromanol) was “removed these EADs”, the “APD30, Change (relative change)” value (30 μM N-AT vs control) was 0.81 ± 0.04 and the “APD50, Change (relative change)” value (30 μM N-AT vs control) was 0.83 ± 0.03. For the same molecule, the “APD70, Change (relative change)” value (30 μM N-AT vs control) was 0.84 ± 0.03, the “Amplpeak, Change” value (30 μM N-AT vs control) was −9 ± 1 mV and the “RR-interval, Change (relative change)” value (30 μM N-AT vs control) was 0.74 ± 0.05. For the same molecule, the “Amplpeak, Change” value [1] was −9±1 mV and the “RMP, Change” value [1] was “no effect”.

Reference: patent US20170216240A1, “METHODS FOR MODULATING IKS CHANNEL ACTIVITY” (UNIVERSITY OF MIAMI, priority 2014, published 2017)
